Molecules are shown by their SMILES.

One test concerns androgen receptor (AR) in LNCaP and/or VCaP cells. Briefly: Androgen Receptor ELISA assay (AR degradation). The test is classed as cell-based. To be noted: LNCaP and/or VCaP cells; 5 hours incubation; media with R1881; read-out: DC50 Code* (degradation of AR ELISA). The procedure: Androgen Receptor ELISA Assay. […] The protocols used with VCaP cells are described below.
The cells were grown for a minimum of 3 days.
(2)(i) A 10× stock plate in media was made; (ii) 2.5 μL of the 1000× stock was transferred to a new 10× stock plate (use 12 channel pipet, start at A (DMSO control) work thru H. When 247.5 µL of media was added to this plate, it served as a 10× stock; (iii) made media+1 nM R1881 for making 10× stock plate; (iv) added 247.5 μL of media with 1 nM R1881 to each well of the 10× stock plate, mix.
Then 22 μL of 10× stock was added to cells and incubated for 5 hours. […] Media was aspirated, and 100 μL 1× cell lysis buffer/well was added. The cells were placed on a shaker located in a cold room for 10 minutes and shaken at speed 7. The lysate mixture was mix and 20 μL transferred to 100 μl of Diluent in ELISA plate (0.15 μg/ml-[…]). The lysate-diluent mixture was store at 4° C. overnight on a shaker located in a cold room at speed 5 (gentle swirl).
The lysate-diluent mixture was shaken for 30 minutes at 37° C. The mouse AR antibody, anti-mouse antibody, TMB, and STOP solution were allowed to come to room temperature. The 1×ELISA buffer included in kit was made and loaded in reservoir. Media from the plate was discarded, the ELISA plate was tapped hard on paper towel, and washed 4×200 μl ELISA wash buffer using a plate washer for the first three washes and an eight channel aspirator for the fourth wash to more thoroughly aspirate the solution.
Next, 100 μL/well of mouse AR detection Ab was added; the plate was covered and shaken at 37° C. for 1 hour; media was discarded from the plates, the plates tapped on a paper towel and washed four times with 200 μL ELISA wash buffer with a plate washer for the first three washes and an eight channel aspirator for the fourth wash; 100 μL/well of anti-mouse—HRP conjugated Ab (comes with the kit) was added; the plates was cover and shaken at 37° C. for 30 minutes; the TMB reagent was allowed to come to room temperature; the media from the plate was discarded, the plates tapped on paper towel, and washed four times with 200 μL ELISA wash buffer with a plate washer for the first three washes and an eight channel aspirator for the fourth wash; plates were tapped on paper towel; 100 μL TMB was added to each well and the plate shaken for 2 minutes—while watching color. STOP solution (100 μL) was added when light blue color developed.
Data was analyzed and plotted using GraphPad Prism software. Exemplary compounds of Tables 1A, 1B, and 1C were assayed and the data shown below in Tables 2A, 2B, and 2C. DC50 (nM) categories (degradation of AR ELISA in LNCaP and/or VCaP cells) of Tables 2A, 2B, and 2C are as follows: A<1 nM; 1≤B<10 nM; 10≤C<100 nM; D≥100 nM. Dmax (%) categories (degradation of AR ELISA in LNCaP and/or VCaP cells) of Table 2 are as follows: A≥70; 50≤B<70; C<50
As to `COc1cc(O[C@H]2CC[C@H](NC(=O)c3cnc(N4CCC(CN(C(C)C)[C@H]5C[C@H](Oc6cc(OC)c7c(c6)C(=O)N(C6CCC(=O)NC6=O)C7=O)C5)CC4)cn3)CC2)ccc1C#N` (some centres unmarked) [Compound 38, N-((1r,4r)-4-(4-cyano-3-methoxyphenoxy)cyclohexyl)-5-(4-((((1r,3r)-3-((2-(2,6-dioxopiperidin-3-yl)-7-methoxy-1,3-dioxoisoindolin-5-yl)oxy)cyclobutyl) (isopropyl)amino)methyl)piperidin-1-yl)pyrazine-2-carboxamide], the 50% degradation concentration (DC50) was less than 1 nM.

As to `CC(C)N(CC1CCN(c2cnc(C(=O)N[C@H]3CC[C@H](Oc4ccc(C#N)c(Cl)c4)CC3)cn2)CC1)[C@H]1C[C@H](Oc2c(F)cc3c(c2F)C(=O)N(C2CCC(=O)NC2=O)C3=O)C1` (some centres unmarked) [Compound 45, N-((1r,4r)-4-(3-chloro-4-cyanophenoxy)cyclohexyl)-5-(4-((((1r,3r)-3-((2-(2,6-dioxopiperidin-3-yl)-4,6-difluoro-1,3-dioxoisoindolin-5-yl)oxy)cyclobutyl) (isopropyl)amino)methyl)piperidin-1-yl)pyrazine-2-carboxamide], the half-maximal degradation concentration (DC50) was less than 1 nM.

Turning to `COc1cc(O[C@H]2C[C@H](N(CC3CCN(c4cnc(C(=O)N[C@H]5CC[C@H](Oc6ccc(C#N)c(C)c6)CC5)cn4)CC3)C(C)C)C2)cc2c1C(=O)N(C1CCC(=O)NC1=O)C2=O` (some centres unmarked) [Compound 78, N-((1r,4r)-4-(4-cyano-3-methylphenoxy)cyclohexyl)-5-(4-((((1r,3r)-3-((2-(2,6-dioxopiperidin-3-yl)-7-methoxy-1,3-dioxoisoindolin-5-yl)oxy)cyclobutyl) (isopropyl)amino)methyl)piperidin-1-yl)pyrazine-2-carboxamide], the 50% degradation concentration (DC50) is less than 1 nM.

Consider `CC(C)N(CC1CCN(c2cnc(C(=O)N[C@H]3CC[C@H](Oc4ccc(C#N)c(Cl)c4)CC3)cn2)CC1)[C@H]1C[C@H](Oc2cc(F)c3c(c2)C(=O)N(C2CCC(=O)NC2=O)C3=O)C1` (some centres unmarked) [Compound 42, N-((1r,4r)-4-(3-chloro-4-cyanophenoxy)cyclohexyl)-5-(4-((((1r,3r)-3-((2-(2,6-dioxopiperidin-3-yl)-7-fluoro-1,3-dioxoisoindolin-5-yl)oxy)cyclobutyl) (isopropyl)amino)methyl)piperidin-1-yl)pyrazine-2-carboxamide], for which the DC50 was less than 1 nM.

`N#Cc1ccc(O[C@H]2CC[C@H](NC(=O)c3cnc(N4CCC(CN(C5COC5)[C@H]5C[C@H](Oc6ccc7c(c6)C(=O)N(C6CCC(=O)NC6=O)C7=O)C5)CC4)cn3)CC2)cc1Cl` (some centres unmarked) [Compound 61, N-((1r,4r)-4-(3-chloro-4-cyanophenoxy)cyclohexyl)-5-(4-((((1r,3r)-3-((2-(2,6-dioxopiperidin-3-yl)-1,3-dioxoisoindolin-5-yl)oxy)cyclobutyl) (oxetan-3-yl)amino)methyl)piperidin-1-yl)pyrazine-2-carboxamide]: the DC50 was less than 1 nM.

Still in this test, the particulars now being: degradation of AR ELISA in LNCaP and/or VCaP cells; Table 2C; read-out: DC50 Code*.
Take `CC(C)N(CC1CCN(c2cnc(C(=O)N[C@H]3C(C)(C)[C@H](Oc4ccc(C#N)c(Cl)c4)C3(C)C)cn2)CC1)[C@H]1C[C@H](Oc2ccc3c(c2)C2(CC2)N(C2CCC(=O)NC2=O)C3=O)C1` (some centres unmarked) [compound 138, N-((1r,3r)-3-(3-chloro-4-cyanophenoxy)-2,2,4,4-tetramethylcyclobutyl)-5-(4-((((1r,3r)-3-((2′-(2,6-dioxopiperidin-3-yl)-3′-oxospiro[cyclopropane-1,1′-isoindolin]-6′-yl)oxy)cyclobutyl) (isopropyl)amino)methyl)piperidin-1-yl)pyrazine-2-carboxamide]: the DC50 is more than 100 nM.

As to `Cc1cc(O[C@H]2C(C)(C)[C@H](NC(=O)c3ccc(N4CCC(CN5CCOC[C@@H]5CCOc5ccc6c(c5)C(=O)N(C5CCC(=O)NC5=O)C6=O)CC4)cc3)C2(C)C)cc(C)c1C#N` (stereo partly drawn) [compound 174, N-((1r,3S)-3-(4-cyano-3,5-dimethylphenoxy)-2,2,4,4-tetramethylcyclobutyl)-4-(4-(((3S)-3-(2-((2-(2,6-dioxopiperidin-3-yl)-1,3-dioxoisoindolin-5-yl)oxy)ethyl)morpholino)methyl)piperidin-1-yl)benzamide], the DC50 is less than 1 nM.

In the case of `Cc1cc(O[C@H]2C(C)(C)[C@H](NC(=O)c3cnc(N4CCC(CN(C(C)C)[C@H]5C[C@H](Oc6ccc7c(c6)CN(C6CCC(=O)NC6=O)C7=O)C5)CC4)cn3)C2(C)C)cc(C)c1C#N` (mixture of isomers) [compound 126, rac-N-((1r,3r)-3-(4-cyano-3,5-dimethylphenoxy)-2,2,4,4-tetramethylcyclobutyl)-5-(4-((((1r,3r)-3-((2-(2,6-dioxopiperidin-3-yl)-1-oxoisoindolin-5-yl)oxy)cyclobutyl) (isopropyl)amino)methyl)piperidin-1-yl)pyrazine-2-carboxamide], the half-maximal degradation concentration (DC50) is more than 100 nM.

With `Cc1cc(O[C@H]2C(C)(C)[C@H](NC(=O)c3ccc(N4CCO[C@@H](CN5CCN(c6ccc7c(c6)C(=O)N(C6CCC(=O)NC6=O)C7=O)CC5)C4)cc3)C2(C)C)cc(C)c1C#N` (stereo partly drawn) [compound 171, N-((1r,3S)-3-(4-cyano-3,5-dimethylphenoxy)-2,2,4,4-tetramethylcyclobutyl)-4-((2S)-2-((4-(2-(2,6-dioxopiperidin-3-yl)-1,3-dioxoisoindolin-5-yl)piperazin-1-yl)methyl)morpholino) benzamide], the DC50 is less than 1 nM.

In the case of `CC1(C)[C@H](NC(=O)c2ccc(N3CCC(CN4CCN(c5ccc6c(c5)C(=O)N([C@@]5(C#N)CCC(=O)NC5=O)C6)CC4)CC3)cc2)C(C)(C)[C@H]1Oc1ccc(C#N)c(Cl)c1` [compound 234, N-((1r,3r)-3-(3-chloro-4-cyanophenoxy)-2,2,4,4-tetramethylcyclobutyl)-4-(4-((4-(2-((R)-3-cyano-2,6-dioxopiperidin-3-yl)-3-oxoisoindolin-5-yl)piperazin-1-yl)methyl)piperidin-1-yl)benzamide], the half-maximal degradation concentration (DC50) is less than 1 nM.

As for `CCN(CC1CCN(c2ccc(C(=O)N[C@H]3C(C)(C)[C@H](Oc4cc(C)c(C#N)c(C)c4)C3(C)C)cc2)CC1)[C@H]1C[C@H](Oc2cc(OC)c3c(c2)C(=O)N(C2CCC(=O)NC2=O)C3=O)C1` (mixture of isomers) [compound 169, rac-N-((1r,3r)-3-(4-cyano-3,5-dimethylphenoxy)-2,2,4,4-tetramethylcyclobutyl)-4-(4-((((1r,3r)-3-((2-(2,6-dioxopiperidin-3-yl)-7-methoxy-1,3-dioxoisoindolin-5-yl)oxy)cyclobutyl) (ethyl)amino)methyl)piperidin-1-yl) benzamide], the DC50 is less than 1 nM.

Regarding `CCN(CC1CCN(c2cnc(C(=O)N[C@H]3C(C)(C)[C@H](Oc4cc(C)c(C#N)c(C)c4)C3(C)C)cn2)CC1)[C@H]1C[C@H](Oc2cc(OC)c3c(c2)C(=O)N(C2CCC(=O)NC2=O)C3=O)C1` (some centres unmarked) [Compound 207, N-((1r,3r)-3-(4-cyano-3,5-dimethylphenoxy)-2,2,4,4-tetramethylcyclobutyl)-5-(4-((((1r,3r)-3-((2-(2,6-dioxopiperidin-3-yl)-7-methoxy-1,3-dioxoisoindolin-5-yl)oxy)cyclobutyl)(ethyl)amino)methyl)piperidin-1-yl)pyrazine-2-carboxamide], the 50% degradation concentration (DC50) was less than 1 nM.

For the compound `Cc1cc(O[C@H]2C(C)(C)[C@H](NC(=O)c3ccc(N4CCC(CN(C(C)C)[C@H]5C[C@H](Oc6ccc7c(c6)C(=O)N([C@@H]6CCC(=O)NC6=O)C7=O)C5)CC4)cc3)C2(C)C)cc(C)c1C#N` [compound 160, N-((1r,3r)-3-(4-cyano-3,5-dimethylphenoxy)-2,2,4,4-tetramethylcyclobutyl)-4-(4-((((1R,3r)-3-((2-((R)-2,6-dioxopiperidin-3-yl)-1,3-dioxoisoindolin-5-yl)oxy)cyclobutyl) (isopropyl)amino)methyl)piperidin-1-yl)benzamide], the DC50 is less than 1 nM.

The test is the same for the next values; noted with them: degradation of AR ELISA in LNCaP and/or VCaP cells; read-out: DC50 Code*.
As to `CC1(C)[C@H](NC(=O)c2ccc(N3CCC(CN4CCN(c5ccc6c(c5)C(=O)N(C5(C#N)CCC(=O)NC5=O)C6)CC4)CC3)cc2)C(C)(C)[C@H]1Oc1ccc(C#N)c(Cl)c1` (mixture of isomers) [compound 241, rac-N-((1r,3r)-3-(3-chloro-4-cyanophenoxy)-2,2,4,4-tetramethylcyclobutyl)-4-(4-((4-(2-(3-cyano-2,6-dioxopiperidin-3-yl)-3-oxoisoindolin-5-yl)piperazin-1-yl)methyl)piperidin-1-yl)benzamide], the half-maximal degradation concentration (DC50) was in the range of 1 to 10 nM.

Values taken from patent US20260053932A1, “COMPOUNDS AND METHODS FOR THE TARGETED DEGRADATION OF ANDROGEN RECEPTOR AND ASSOCIATED METHODS OF USE” (Arvinas Operations, Inc., priority 2020, published 2026).
